The results in this text go back to patent US9266834B2, “1, 4-disubstituted 3-cyano-pyridone derivatives and their use as positive allosteric modulators of MGLUR2-receptors” (JANSSEN PHARMACEUTICALS, INC., priority 2006, dated 2016).

T1 sequence (Q14416 19-872): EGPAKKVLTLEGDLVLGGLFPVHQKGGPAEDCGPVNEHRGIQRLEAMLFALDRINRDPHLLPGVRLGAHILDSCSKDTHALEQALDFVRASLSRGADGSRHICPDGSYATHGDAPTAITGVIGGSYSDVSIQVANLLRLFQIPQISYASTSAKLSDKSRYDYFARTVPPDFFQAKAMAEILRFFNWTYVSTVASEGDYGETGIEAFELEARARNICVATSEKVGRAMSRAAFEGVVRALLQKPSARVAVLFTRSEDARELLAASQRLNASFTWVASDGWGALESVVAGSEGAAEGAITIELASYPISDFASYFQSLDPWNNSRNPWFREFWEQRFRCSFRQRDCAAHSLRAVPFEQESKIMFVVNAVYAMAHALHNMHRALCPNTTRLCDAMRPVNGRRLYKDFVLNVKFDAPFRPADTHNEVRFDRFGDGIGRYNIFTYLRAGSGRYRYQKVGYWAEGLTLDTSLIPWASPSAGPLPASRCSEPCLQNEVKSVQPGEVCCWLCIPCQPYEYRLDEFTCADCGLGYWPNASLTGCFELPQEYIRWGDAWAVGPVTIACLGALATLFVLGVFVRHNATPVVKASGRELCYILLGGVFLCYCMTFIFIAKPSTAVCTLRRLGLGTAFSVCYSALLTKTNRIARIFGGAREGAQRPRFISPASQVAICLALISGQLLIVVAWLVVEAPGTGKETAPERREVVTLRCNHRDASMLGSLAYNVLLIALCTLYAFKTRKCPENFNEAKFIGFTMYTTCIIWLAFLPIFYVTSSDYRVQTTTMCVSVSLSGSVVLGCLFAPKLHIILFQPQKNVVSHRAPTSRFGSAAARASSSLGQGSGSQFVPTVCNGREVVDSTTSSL

This experiment has as its target T1, human mGluR2 receptor (Homo sapiens, UniProt Q14416).
T1 construct: expressed in transfected cells; host or cells: CHO cells (membrane preparation)
In words: [35S]GTPγS binding assay (GTPγS-PAM): positive allosteric modulation in presence of glutamate at EC25, membranes from transfected CHO cells. The experiment is classed as biochemical. As to conditions: in presence of mGluR2 agonist glutamate at predetermined EC25 concentration, averages of duplicate values of 11-concentration response curves, read-out: GTPgS - hR2 PAM pEC50 (converted). The text has this:
The compounds provided in the present invention are positive allosteric modulators of mGluR2. These compounds appear to potentiate glutamate responses by binding to an allosteric site other than the glutamate binding site. The response of mGluR2 to a concentration of glutamate is increased when compounds of Formula (I) are present. Compounds of Formula (I) are expected to have their effect substantially at mGluR2 by virtue of their ability to enhance the function of the receptor. The behaviour of positive allosteric modulators tested at mGluR2 using the [^35S]GTPγS binding assay method described below and which is suitable for the identification of such compounds, and more particularly the compounds according to Formula (I), are shown in Table 4.
[^35S]GTPγS Binding Assay
The [^35S]GTPγS binding is a functional membrane-based assay used to study G-protein coupled receptor (GPCR) function whereby incorporation of a non-hydrolysable form of GTP, [^35S]GTPγS (guanosine 5′-triphosphate, labelled with […] ^35S), is measured. The G-protein o subunit catalyzes the exchange of guanosine 5′-diphosphate (GDP) by guanosine triphosphate (GTP) and on activation of the GPCR by an agonist, [^35S]GTPγS, becomes incorporated and cannot be cleaved to continue the exchange cycle (Harper (1998) Current Protocols in Pharmacology 2.6.1-10, John Wiley & Sons, Inc.). […] Here we describe the use of the [^35S]GTPγS binding assay using membranes from cells transfected with the human mGluR2 receptor and adapted from Schaffhauser et al ((2003) Molecular Pharmacology 4:798-810) for the detection of the positive allosteric modulation (PAM) properties of the compounds of this invention.
CHO-cells were cultured to pre-confluence and stimulated with 5 mM butyrate for 24 hours, prior to washing in PBS, and then collection by scraping in homogenisation buffer (50 mM Tris-HCl buffer, pH 7.4, 4° C.). Cell lysates were homogenized briefly (15 s) using an ultra-turrax homogenizer. The homogenate was centrifuged at 23 500×g for 10 minutes and the supernatant discarded. The pellet was resuspended in 5 mM Tris-HCl, pH 7.4 and centrifuged again (30 000×g, 20 min, 4° C.). The final pellet was resuspended in 50 mM HEPES, pH 7.4 and stored at −80° C. in appropriate aliquots before use. Protein concentration was determined by the Bradford method (Bio-Rad, USA) with bovine serum albumin as standard.
Measurement of mGluR2 positive allosteric modulators in membranes containing human mGluR2 was performed using frozen membranes that were thawed and briefly homogenised prior to pre-incubation in 96-well microplates (15 μg/assay well, 30 minutes, 30° C.) in assay buffer (50 mM HEPES pH 7.4, 100 mM NaCl, 3 mM MgCl2, 50 μM GDP, 10 μg/ml saponin,) with increasing concentrations of positive allosteric modulator (from 0.3 nM to 50 μM) and either a minimal pre-determined concentration of glutamate (PAM assay), or no added glutamate. For the PAM assay, membranes were pre-incubated with glutamate at EC25 concentration, i.e. a concentration that gives 25% of the maximal response glutamate, and is in accordance to published data (Pin et al. (1999) Eur. J. Pharmacol. 375:277-294). After addition of [^35S]GTPγS (0.1 nM, f.c.) to achieve a total reaction volume of 200 μl, microplates were shaken briefly and further incubated to allow [^35S]GTPγS incorporation on activation (30 minutes, 30° C.). The reaction was stopped by rapid vacuum filtration over glass-fibre filter plates (Unifilter 96-well GF/B filter plates, Perkin-Elmer, Downers Grove, USA) microplate using a 96-well plate cell harvester (Filtermate, Perkin-Elmer, USA), and then by washing three times with 300 μl of ice-cold wash buffer (Na2PO4.2H2O 10 mM, NaH2PO4.H2O 10 mM, pH=7.4). Filters were then air-dried, and 40 μl of liquid scintillation cocktail (Microscint-O) was added to each well, and membrane-bound [^35S]GTPγS was measured in a 96-well scintillation plate reader (Top-Count, Perkin-Elmer, USA). […]
(In general: GTPγS is a poorly hydrolysed GTP analogue; its binding reports G protein activation.)
As to `CC(C)CCn1ccc(-c2ccc(COc3ccncc3)cc2)c(C#N)c1=O` [1-160], the EC50 is 631 nM.
Then `CC(C)CCn1ccc(-c2ccc(Oc3ccncc3)cc2F)c(C#N)c1=O` [1-161], with 631 nM; and `CC(C)CCn1ccc(-c2ccc(OCc3ccncc3)c(Cl)c2)c(C#N)c1=O` [1-165], with 79.4 nM.
The figure for `COc1cc(-c2ccn(CCC(C)C)c(=O)c2C#N)ccc1OCc1cccnc1` [1-166] is 1580 nM; for `COc1cc(-c2ccn(CCC(C)C)c(=O)c2C#N)ccc1OCc1ccncc1` [1-167] it is 501 nM.
Then `CC(C)CCn1ccc(-c2ccc(OCc3nnc[nH]3)cc2)c(C#N)c1=O` [1-168], with 6310 nM; and `CC(C)CCn1ccc(-c2ccc(N)cc2)c(C#N)c1=O` [1-170], with 794 nM; and `COCCNc1ccc(-c2ccn(CCC(C)C)c(=O)c2C#N)cc1` [1-174], with 1580 nM.
For the molecule `CC(=O)CCNc1ccc(-c2ccn(CCC(C)C)c(=O)c2C#N)cc1` [1-180], the EC50 is 316 nM.
Then `CC(=O)NCCNc1ccc(-c2ccn(CCC(C)C)c(=O)c2C#N)cc1` [1-182], with 3160 nM.
Then `COc1cc(-c2ccn(CCC(C)C)c(=O)c2C#N)ccc1NC(C)C` [1-183], with 251 nM; and `COc1cc(-c2ccn(CCC(C)C)c(=O)c2C#N)ccc1CNC(C)=O` [1-184], with 3980 nM.
Regarding `COCCN(C)c1ccc(-c2ccn(CCC(C)C)c(=O)c2C#N)cc1OC` [1-185], the EC50 was 1000 nM.
Then `CC(C)CCn1ccc(-c2ccc(NC3CC3)cc2)c(C#N)c1=O` [1-187], with 126 nM.
The figure for `CC(C)CCn1ccc(-c2ccc(NC3CCCCC3)cc2)c(C#N)c1=O` [1-188] is 50.1 nM; for `CC(C)CCn1ccc(-c2ccc(Nc3ccccc3)cc2)c(C#N)c1=O` [1-193] it is 5010 nM; for `CC(C)CCn1ccc(-c2ccc(NCc3ccccc3)cc2)c(C#N)c1=O` [1-194] it is 63.1 nM.
Then `CC(C)CCn1ccc(-c2ccc(N(C)c3ccccc3)cc2)c(C#N)c1=O` [1-195], with 126 nM; and `CC(C)CCn1ccc(-c2ccc(N(C)Cc3ccccc3)cc2)c(C#N)c1=O` [1-196], with 39.8 nM; and `CC(C)CCn1ccc(-c2ccc(CN(C)Cc3ccc(F)cc3)cc2)c(C#N)c1=O` [1-197], with 251 nM.
Take `CC(C)CCn1ccc(-c2ccc(CNCc3ccccc3F)cc2)c(C#N)c1=O` [1-198]: the EC50 is 1260 nM.
The figure for `CC(=O)Nc1ccc(-c2ccn(CCC(C)C)c(=O)c2C#N)cc1F` [1-201] is 3980 nM; for `CC(C)CCn1ccc(-c2ccc(NCc3ccc(OC(F)(F)F)cc3)cc2)c(C#N)c1=O` [1-205] it is 251 nM.
Turning to `CC(C)CCn1ccc(-c2ccc(Nc3ccncc3)cc2)c(C#N)c1=O` [1-208], the EC50 is 1260 nM.
Then `CC(C)CCn1ccc(-c2ccc(NCc3cccnc3)cc2)c(C#N)c1=O` [1-209], with 1260 nM; and `Cc1ccc(-c2ccn(CCC(C)C)c(=O)c2C#N)cc1[N+](=O)[O-]` [1-214], with 794 nM.
The figure for `CC(C)CCn1ccc(-c2ccc(NC3CCS(=O)(=O)CC3)cc2)c(C#N)c1=O` [1-217] is 2510 nM; for `CC(C)CCn1ccc(-c2ccc(N3CCCC3)cc2)c(C#N)c1=O` [1-218] it is 200 nM.
The figure for `CC(C)CCn1ccc(-c2ccc(N3CCCCC3)cc2)c(C#N)c1=O` [1-219] is 200 nM; for `COC1CCN(c2ccc(-c3ccn(CCC(C)C)c(=O)c3C#N)cc2)CC1` [1-221] it is 398 nM.
With `CC(=O)N1CCN(c2ccc(-c3ccn(CCC(C)C)c(=O)c3C#N)cc2)CC1` [1-231], the EC50 is 1580 nM.
The figure for `CC(C)CCn1ccc(-c2ccc(N3CCN(c4ccccc4)CC3)cc2)c(C#N)c1=O` [1-233] is 631 nM.
Then `CC(C)CCn1ccc(-c2ccc(N3CCN(c4ccncc4)CC3)cc2)c(C#N)c1=O` [1-234], with 1260 nM; and `CC(C)CCn1ccc(-c2ccc(-n3ccnn3)cc2)c(C#N)c1=O` [1-236], with 2000 nM.
Then `CC(C)CCn1ccc(-c2ccc(N3Cc4ccccc4C3)cc2)c(C#N)c1=O` [1-237], with 398 nM.
With `COC(=O)c1cccc(-c2ccn(CCC(C)C)c(=O)c2C#N)c1` [1-242], the EC50 is 3980 nM.
Then `CC(C)CCn1ccc(-c2ccc(C3(C(N)=O)CC3)cc2)c(C#N)c1=O` [1-246], with 3980 nM; and `CC(C)CCn1ccc(-c2ccc(Cn3ccnc3)cc2)c(C#N)c1=O` [1-248], with 3160 nM; and `CC(C)CCn1ccc(-c2ccc(N3CCCC3=O)cc2)c(C#N)c1=O` [1-249], with 3980 nM.
The figure for `CC(C)CCn1ccc(-c2ccc(-c3cnco3)cc2)c(C#N)c1=O` [1-250] is 1580 nM; for `CC(C)CCn1ccc(-c2ccc3c(c2)OCCO3)c(C#N)c1=O` [1-253] it is 501 nM; for `CC(C)CCn1ccc(-c2ccc(CSc3ccncc3)cc2)c(C#N)c1=O` [1-258] it is 316 nM.
On to `CC(C)CCn1ccc(-c2ccc3sccc3c2)c(C#N)c1=O` [1-259], for which the EC50 is 200 nM.
The figure for `CC(C)CCn1ccc(CCc2ccccc2)c(C#N)c1=O` [1-260] is 1260 nM; for `CC(C)CCn1ccc(C=Cc2ccccc2)c(C#N)c1=O` [1-261] it is 200 nM.
The figure for `CC(C)CCn1ccc(CCc2cccc(N(C)C)c2)c(C#N)c1=O` [1-262] is 1580 nM.
On to `CC(C)CCn1ccc(CCc2ccc(N(C)C)cc2)c(C#N)c1=O` [1-263], for which the EC50 was 1000 nM.
As for `COc1cccc(CCc2ccn(CCC(C)C)c(=O)c2C#N)c1` [1-264], the EC50 is 1580 nM.
The figure for `COc1ccc(C=Cc2ccn(CCC(C)C)c(=O)c2C#N)cc1` [1-266] is 316 nM.
Then `CC(C)CCn1ccc(C#Cc2ccccc2)c(C#N)c1=O` [1-267, 3-cyano-1-(3-methylbutyl)-4-(phenylethynyl)pyridine-2(1H)-one], with 79.4 nM; and `COc1ccc(C#Cc2ccn(CCC(C)C)c(=O)c2C#N)cc1` [1-268], with 50.1 nM.
Then `CC(C)CCn1ccc(C#Cc2cccc(N(C)C)c2)c(C#N)c1=O` [1-269], with 158 nM.
Turning to `N#Cc1c(OCc2ccc(CN3CCOCC3)cc2)ccn(Cc2ccc(OC(F)(F)F)cc2)c1=O` [1-271], the EC50 is 158 nM.
The figure for `N#Cc1c(OCc2ccccc2)ccn(Cc2ccc(OC(F)(F)F)cc2)c1=O` [1-272] is 126 nM.
Then `CCCCn1ccc(Oc2ccc(Br)cc2)c(C#N)c1=O` [1-273], with 631 nM.
Then `CC(C)CCn1ccc(Oc2ccccc2)c(C#N)c1=O` [1-274], with 1580 nM.
Turning to `CC(C)CCn1ccc(OCCc2ccccc2)c(C#N)c1=O` [1-276], the EC50 was 2510 nM.
The figure for `CC(C)CCn1ccc(OCc2ccc(C(F)(F)F)cc2)c(C#N)c1=O` [1-277] is 251 nM; for `CC(C)CCn1ccc(OCc2ccc(Br)cc2)c(C#N)c1=O` [1-278] it is 316 nM.
The figure for `CC(C)CCn1ccc(OCCOc2ccccc2)c(C#N)c1=O` [1-280] is 1580 nM; for `COc1ccc(COc2ccn(CCC(C)C)c(=O)c2C#N)cc1F` [1-283] it is 794 nM.
Then `CC(C)CCn1ccc(OCc2ccc(C#N)cc2)c(C#N)c1=O` [1-286], with 3980 nM.
